Experimental data taken from publication PMC5435703 (Scientific Reports, 2017).
Values after ≈ are worked out from the molar mass of the structure shown. Like-named read-outs stand apart in the source and are kept apart here.

How the values were obtained:
S. aureus = system: S. aureus; set-up: method as in PMID 24389824; conditions: initial studies; cited from earlier work
MRSA BAA-1707 [1] = experiment: MIC broth microdilution assay; format: cell-based, Staphylococcus aureus
MRSA-1 = experiment: MIC broth microdilution assay; format: cell-based, Staphylococcus aureus; conditions: Staphylococcus aureus, MRSA
MRSA-2 = experiment: MIC broth microdilution assay; format: cell-based, Staphylococcus aureus; conditions: Staphylococcus aureus, MRSA; Table 1; read-out: MIC MRSA-2
MRSE 35984 = experiment: MIC broth microdilution assay; format: cell-based, Staphylococcus epidermidis; conditions: Staphylococcus epidermidis, MRSE
VRE 700221 = experiment: MIC broth microdilution assay; format: cell-based, Enterococcus faecium; conditions: Enterococcus, VRE, Table 1; read-out: MIC VRE 700221
MRSA, MRSE and VRE = experiment: MIC assays, summary over strains; format: cell-based; conditions: read-out: MIC against all strains tested against
MRSA BAA-44 = experiment: MIC broth microdilution assay; format: cell-based; conditions: Staphylococcus aureus
S. epi 12228 = experiment: MIC broth microdilution assay; format: cell-based, Staphylococcus epidermidis; conditions: Staphylococcus epidermidis, 12228; Table 1; read-out: MIC S. epi 12228
MtB H37Ra = experiment: MIC assay for Mycobacterium tuberculosis; format: cell-based; conditions: 168 h, seven days
[2] = LDH release assay for HeLa cytotoxicity; format: cell-based; conditions: human, HeLa cells; LDH release, 24 hours; tested at 25, 50 and 100 µM; read-out: HeLa Cytotox. IC50
MRSA BAA-1707 [3] = experiment: MIC assay with metal(II) cation co-treatment; format: cell-based, Staphylococcus aureus
UV-Vis metal(II) binding = format: physicochemical; conditions: UV-Vis kinetics, compared to HP 1
Description: The rates of halogenated phenazine-copper(II) complex formation were independently evaluated via UV-Vis spectrometry following addition of 0.5 equivalents copper(II) sulfate to stirring solutions of HP (10 mM, 4 mL) in dimethyl sulfoxide. Spectral scanning was performed from 200 to 800 nm in 2 nm increments. The disappearance of HPs 1, 17 and 22 was observed over the indicated time points. The halogenated phenazine-copper(II) complex formation yielded a loss in absorbance due to precipitation.

MRSA BAA-1707 [4] = experiment: Calgary Biofilm Device (CBD) MBC/MBEC assay; format: cell-based, Staphylococcus aureus; conditions: for MBC: Staphylococcus aureus
four MRSA isolates = experiment: MIC assays, panel of four MRSA isolates; format: cell-based; conditions: Staphylococcus aureus, range over isolates, read-out: MIC against a panel of four MRSA isolates
S. epidermidis = experiment: MIC assays, S. epidermidis strains; format: cell-based; conditions: Staphylococcus epidermidis; range over strains
[5] = Hemolysis assay with red blood cells; conditions: human, pH 7.2
MRSA-1707 biofilms = experiment: Live/Dead staining (fluorescence microscopy) of biofilms; conditions: 0.1, 1 and 5 µM, 24 hours
Description: A mid-log culture of MRSA BAA-1707 was diluted 1:1,000-fold and 500 µL was transferred to each compartment of a 4 compartment CELLview dish (Greiner Bio-One 627871). The dish was then incubated for 24 hours at 37 °C. After this time, the cultures were removed and the plate was washed with 0.9% saline. The dish was then treated with the compounds in fresh media at various concentrations. DMSO was used as our negative control in this assay. The dish was incubated with the compound for 24 hours at 37 °C. After this time, the cultures were removed and the dish was washed with 0.9% saline for 2 minutes. Saline was then removed and 500 µL of the stain (Live/Dead BacLight Viability Kit, Invitrogen) were added for 15 minutes and left in the dark. After this time, the stain was removed and the dish was washed twice with 0.9% saline. Then the dish was fixed with 500 µL 4% paraformaldehyde in PBS for 30 minutes. Images of remaining MRSA biofilms were then taken with a fluorescence microscope. All data were analyzed using ImageJ software from three independent experiments.
E.) Live / Dead staining (Fluorescence Microscopy) of MRSA BAA-1707 Biofilms: […]
the cultures were removed and the dish was washed with 0.9% saline for 2 minutes. […] Images of remaining MRSA biofilms were then taken with a fluorescence microscope. All data were analyzed using Image J software from three

Oc1c(Br)ccc2nc3ccccc3nc12 [2-bromo-1-hydroxyphenazine, reference compound]
MIC S. aureus (S. aureus): 6.25 µM (≈ 1.72 µg/mL)

Oc1c(Br)cc(Br)c2nc3c(O)c(Br)cc(Br)c3nc12 [HP 15]
MIC (MRSA BAA-1707 [1]; Staphylococcus aureus, Table 1, three independent experiments, read-out: MIC MRSA BAA-1707): > 50 µM | MIC (MRSA BAA-1707 [1]; Table 1, three independent experiments, read-out: MIC MRSA BAA-1707): >50 µM | MIC (MRSA-1; Table 1, read-out: MIC MRSA-1): > 50 µM | MIC (MRSA-1; single plate shown as picture, read-out: MIC (µM), MIC Assay Against MRSA-1): > 50 µM | MIC (MRSA-2): > 50 µM | MIC (MRSE 35984; Table 1, read-out: MIC MRSE 35984): > 50 µM | MIC (VRE 700221): > 50 µM | MIC (MRSA, MRSE and VRE): > 50 µM

Cc1cccc2nc3c(O)c(Br)cc(Br)c3nc12 [HP 17, 6-methyl-2,4-dibromo-1-hydroxyphenazine]
MIC (MRSA BAA-1707 [1]; Staphylococcus aureus, Table 3, read-out: MRSA BAA-1707 MIC): 0.3 µM (≈ 0.11 µg/mL) | MIC (MRSA BAA-1707 [1]; Staphylococcus aureus, single plate shown as picture, read-out: MIC (µM), MIC Assay against MRSA BAA-1707): 0.2 µM (≈ 0.0736 µg/mL) | MIC (MRSA BAA-44; single plate shown as picture, read-out: MIC (µM), MIC Assay Against MRSA BAA-44): 0.39 µM (≈ 0.144 µg/mL) | MIC (MRSA BAA-44; Table 1, read-out: MIC MRSA BAA-44): 0.39 µM (≈ 0.144 µg/mL) | MIC (MRSA-1; Table 1, read-out: MIC MRSA-1): ≤ 0.1 µM | MIC (MRSA-2): 0.3 µM (≈ 0.11 µg/mL) | MIC (MRSE 35984; Table 3, read-out: MRSE 35984 MIC): 0.3 µM (≈ 0.11 µg/mL) | MIC (S. epi 12228): 0.39 µM (≈ 0.144 µg/mL) | MIC (MtB H37Ra): 25 µM (≈ 9.2 µg/mL) | IC50 at 24 h [2]: > 100 µM | MIC (MRSA BAA-1707 [3]; Staphylococcus aureus, Cu(II) co-treatment plate, lanes without metal, read-out: MIC): 0.2 µM | MIC (MRSA BAA-1707 [3]; Staphylococcus aureus, Fe(II) co-treatment plate, lanes without metal, read-out: MIC): 0.39 µM | MIC (MRSA BAA-1707 [3]; Staphylococcus aureus, Mg(II) co-treatment plate, lanes without metal, read-out: MIC): 0.2 µM | MIC (MRSA BAA-1707 [3]; Staphylococcus aureus, Table 2, MRSA BAA-1707, no metal(II) cation added, read-out: MIC): 0.3 µM | MIC (MRSA BAA-1707 [3]; Staphylococcus aureus, Zn(II) extended plate assay, lanes without metal, read-out: MIC): 0.2 µM | MIC (MRSA BAA-1707 [3]; Staphylococcus aureus, copper(II) at 200 µM co-treatment, read-out: MIC w/Cu2+): 75 µM | MIC (MRSA BAA-1707 [3]; Staphylococcus aureus, extended plate assay, 200 µM Zn(II), read-out: MIC (µM) + Zn(II)): 0.05 µM | MIC (MRSA BAA-1707 [3]; Staphylococcus aureus, iron(II) at 200 µM co-treatment, read-out: MIC w/Fe2+): 12.5 µM | MIC (MRSA BAA-1707 [3]; Staphylococcus aureus, magnesium(II) at 200 µM co-treatment, read-out: MIC w/Mg2+): 0.3 µM | MIC (MRSA BAA-1707 [3]; Staphylococcus aureus, single plate, 200 µM Fe(II), read-out: MIC (µM) + Fe(II)): 12.5 µM | MIC (MRSA BAA-1707 [3]; Staphylococcus aureus, single plate, 200 µM Mg(II), read-out: MIC (µM) + Mg(II)): 0.2 µM | MIC (MRSA BAA-1707 [3]; Staphylococcus aureus, zinc(II) at 200 µM co-treatment, read-out: MIC w/Zn2+): 0.05 µM | MIC (MRSA BAA-1707 [3]; single plate, 200 µM Cu(II), read-out: MIC (µM) + Cu(II)): 50 µM | rate of copper(II) chelation (UV-Vis metal(II) binding): faster rate than HP 1 | MRSA BAA-1707 MBEC (MRSA BAA-1707 [4]; CBD, biofilm eradication, 24 hours treatment): 6.25/6.25 µM | MRSA-1707 Biofilm Eradication MBEC (MRSA BAA-1707 [4]; Figure 7A, single CBD plate): 6.25 µM | MBC (MRSA BAA-1707 [4]; 24 h, CBD, planktonic killing, 24 hours treatment, read-out: MRSA BAA-1707 MBC): 6.25 µM (≈ 2.3 µg/mL) | MBC (MRSA BAA-1707 [4]; 24 h, supplement page 27, first CBD plate, read-out: MRSA Planktonic Killing MBC): 6.25 µM (≈ 2.3 µg/mL) | MBC (MRSA BAA-1707 [4]; Figure 7A, single CBD plate, read-out: MRSA-1707 Planktonic Eradication MBC): 6.25 µM (≈ 2.3 µg/mL) | MIC (four MRSA isolates): 0.05 to 0.59 µM (≈ 0.0184 to 0.217 µg/mL) | MIC (S. epidermidis): 0.3 to 0.39 µM (≈ 0.11 to 0.144 µg/mL) | hemolysis at 1 h, 200 µM [5]: 6.7% | Live/Dead staining response of established biofilms (MRSA-1707 biofilms): potent biofilm eradication and clearance response
